Data set [1] deals with Trypanosoma brucei brucei. Nature of the data set: Antimicrobial activity against Trypanosoma brucei brucei Antat 1.1 after 24 hrs by haemocytometric analysis. In kind it is functional, organism-based. The settings on record: Antat 1.1, 24 h.
The nature of data set [2]: Selectivity index, ratio of CC50 for human HepG2 cells to IC50 for Trypanosoma brucei brucei Antat 1.1. The class given is functional.
The subject of data set [3] is Plasmodium falciparum. Nature of the data set: Antimicrobial activity against chloroquine-resistant and mefloquine-sensitive Plasmodium falciparum W2 infected in human erythrocytes after 48 hrs by SYBR Green I assay. In kind it is functional, organism-based. The settings on record: W2, 48 h.
The nature of data set [4]: Selectivity index, ratio of CC50 for human HepG2 cells to IC50 for chloroquine and mefloquine-sensitive Plasmodium falciparum 3D7. The class given is functional.
Another data set concerns Leishmania mexicana. Nature of the data set: Antimicrobial activity against Leishmania mexicana MHOM/MX/95/NAN1 promastigotes after 96 hrs by resazurin-based assay. The settings on record: MHOM/MX/95/NAN1, 96 h. In kind it is functional, organism-based. (In general: The colour change of resazurin is a common sign of viable cells or microbes.)
Data set [5] in a line: Selectivity index, ratio of CC50 for mouse J774A1 cells to IC50 for Leishmania donovani MHOM/IN/00/DEVI promastigotes. The class given is functional, J774.A1.
A short description of data set [6]: Selectivity index, ratio of CC50 for human HepG2 cells to IC50 for Leishmania major MHOM/IL/81/BNI promastigotes. In kind it is functional.
A short description of data set [7]: Cytotoxicity against mouse J774A1 cells after 72 hrs by MTT assay. The class given is cell-based, J774.A1.
Another data set has as its system Leishmania donovani. Description: Antimicrobial activity against Leishmania donovani MHOM/IN/00/DEVI promastigotes after 72 hrs by MTT assay. In kind it is functional, organism-based.
Data set [8] can be described thus: Selectivity index, ratio of CC50 for mouse J774A1 cells to IC50 for Leishmania major MHOM/IL/81/BNI promastigotes. In kind it is functional, J774.A1.
In data set [9] the test system is Plasmodium falciparum. Description: Antimicrobial activity against chloroquine and mefloquine-sensitive Plasmodium falciparum 3D7 infected in human erythrocytes after 48 hrs by SYBR Green I assay. The class given is functional, organism-based. The settings on record: 3D7, 48 h.
The nature of data set [10]: Cytotoxicity against human HepG2 cells after 72 hrs by MTT assay. In kind it is cell-based. Background: Tetrazolium assays rely on reduction of a dye to a coloured formazan, in cell work by metabolically active cells.
Data set [11] can be described thus: Selectivity index, ratio of CC50 for human HepG2 cells to IC50 for Leishmania donovani MHOM/IN/00/DEVI promastigotes. In kind it is functional.
For data set [12], the system named is Leishmania major. Nature of the data set: Antimicrobial activity against Leishmania major MHOM/IL/81/BNI promastigotes after 96 hrs by resazurin-based assay. In kind it is functional, organism-based.
Data set [13] is described as follows: Selectivity index, ratio of CC50 for human HepG2 cells to IC50 for chloroquine-resistant and mefloquine-sensitive Plasmodium falciparum W2. In kind it is functional.
The nature of data set [14]: Selectivity index, ratio of CC50 for human HepG2 cells to IC50 for Leishmania mexicana MHOM/MX/95/NAN1 promastigotes. The class given is functional.
Data set [15] can be described thus: Selectivity index, ratio of CC50 for mouse J774A1 cells to IC50 for Leishmania mexicana MHOM/MX/95/NAN1 promastigotes. In kind it is functional, J774.A1.
Data set [16] has as its system Leishmania major. Nature of the data set: Ratio of pentamidine IC50 to compound IC50 for Leishmania major MHOM/IL/81/BNI promastigotes. In kind it is functional.

The IC50 is the concentration that inhibits the measured activity by half. Low readings indicate greater potency, high ones weaker potency. Usually CC50 stands for the concentration giving 50% cytotoxicity. Read a low CC50 as greater toxicity to the cells. Consider `C/C=C/C=C/c1nc2cccc(OC)c2n2cccc12`, for which the IC50 in data set [1] was determined as 2.2 µM; with Plasmodium falciparum [3], 2.6 µM; with Leishmania mexicana, 8 µM; in the data set on Leishmania donovani, 7.2 µM; with Plasmodium falciparum [9], 3.2 µM; in the data set on Leishmania major [12], 3.3 µM. Besides, the “Ratio CC50/IC50” value in data set [2] is listed as 2.9; in [4], 2; in data set [5] it was 0.4; in data set [6] it was 2; in [8], 0.8; in [11] it was 0.9. Besides, the entries for the “Ratio CC50/IC50” value in [13], in data set [14] and in [15] were 2.5, 0.8 and 0.3, respectively. Also, the CC50 at 72 h in data set [7] was 2.7 µM; in data set [10], 6.5 µM.
Consider `CCC/C=C/C=C/c1nc2cc(OC)ccc2n2cccc12`, for which the IC50 in [1] came to 1.9 µM; in the data set with Plasmodium falciparum [3] it was 0.8 µM; with Leishmania mexicana, 3.2 µM; in the data set on Leishmania donovani, 8.6 µM; in the data set on Plasmodium falciparum [9] it was 2.3 µM; with Leishmania major [12], 2.8 µM. For the same compound, the “Ratio CC50/IC50” value in data set [2] stood at 4.6; in data set [4] it was 3.8; in data set [5], 0.8; in [6], 3.1; in data set [8], 2.3; in data set [11], 1. In addition, the “Ratio CC50/IC50” value in data set [13] was found to be 11; in [14], 2.8; in [15] it was 2. The figures for the CC50 at 72 h in data set [7] and in data set [10] were 6.5 µM and 8.8 µM, respectively.
As for `CCCC/C=C/C=C/c1nc2cc(OC)ccc2n2cccc12`, the IC50 in [1] came to 1.1 µM; in the data set on Plasmodium falciparum [3], 13.8 µM; in the data set on Leishmania mexicana it was 6.6 µM; in the data set on Leishmania donovani, 12.1 µM; in the data set with Plasmodium falciparum [9], 8.9 µM; with Leishmania major [12], 2.5 µM. Also, the “Ratio CC50/IC50” value in data set [2] came to 16.6; in data set [4] it was 2.1; in data set [5] it was 0.7; in data set [6], 7.3; in data set [8], 3.2; in data set [11] it was 1.5. Further, the “Ratio CC50/IC50” value is recorded as 1.3 in [13], 2.8 in [14] and 1.2 in data set [15]. The figures for the CC50 at 72 h in data set [7] and in data set [10] were 8 µM and 18.3 µM, respectively.
Turning to `CCCC/C=C/C=C/c1nc2ccc(OC)cc2n2cccc12`, the IC50 in data set [1] turned out to be 1.3 µM; in the data set on Plasmodium falciparum [3] it was 13.3 µM; in the data set on Leishmania mexicana it was 3.8 µM; in the data set with Leishmania donovani, 14.7 µM; with Plasmodium falciparum [9], 10.4 µM; with Leishmania major [12] it was 4.4 µM. The “Ratio CC50/IC50” value stood at 17.6 in [2]; 2.2 in [4]; 0.7 in data set [5]; 5.2 in [6]; 2.3 in data set [8]; 1.6 in [11]. The “Ratio CC50/IC50” value worked out at 1.7 in [13], 6 in data set [14] and 2.6 in data set [15]. In addition, the CC50 at 72 h was determined as 10 µM in data set [7] and 22.9 µM in [10].
Turning to `C/C=C/C=C/C=C/c1nc2ccccc2n2cccc12`, the IC50 amounted to 2.2 µM in data set [1]; 8.8 µM with Plasmodium falciparum [3]; 4.4 µM in the data set on Leishmania mexicana; 10.5 µM in the data set with Leishmania donovani; 10.1 µM in the data set with Plasmodium falciparum [9]; 1.2 µM in the data set with Leishmania major [12]. Also, the “Ratio CC50/IC50” value was found to be 4.8 in data set [2]; 1 in [4]; 0.5 in [5]; 8.8 in data set [6]; 4.1 in [8]; 1 in [11]. Moreover, the “Ratio CC50/IC50” value in data set [13] was 1.2; in data set [14], 2.4; in data set [15], 1.1. Also, the values for the CC50 at 72 h in data set [7] and in data set [10] were 4.9 µM and 10.6 µM, respectively. The “Ratio IC50” value with Leishmania major [16] is 3.6.

The values above are taken from ChEMBL document CHEMBL3259800, “Design, synthesis and biological evaluation of novel 4-alkapolyenylpyrrolo[1,2-a]quinoxalines as antileishmanial agents--part III” (Eur J Med Chem, 2014).
